Tests used:
RPMI 8226 = experiment: NCI60 screen, Sulforhodamine B assay; format: cell-based, human; settings: 10 μM phenoxybenzamine
Procedure: (§1) The results of these studies were included in an application for the screening of PBZ in the National Cancer Institute NCI60 screening program (https://dtp.cancer.gov/discovery_development/nci-60); they measured its effects on growth in cultures of 60 human tumors. This initial screen was conducted at only one drug concentration, 10 μM. We supplied the United States Pharmacopeial reference standard of PBZ-hydrochloride in powder form. The NCI60 standard procedure for dissolution of a synthetic molecule like PBZ involved initial dilution in 9:1 dimethyl sulfoxide (DMSO): glycerol at a concentration of 4 mM; the solution was then diluted 1:200 with complete culture medium (RPMI 1640 medium containing 5% fetal calf serum (FCS), 2 mM L-glutamine and 50 μg/ml gentamicin to give a final concentration of 20 μM; 100 μl of the drug-medium mixture was added to 100 μl of the cell cultures already in complete medium. The microtiter plates were incubated for 48 hr at 37°C, 5% CO2, 95% air, and 100% relative humidity (see S1 Appendix for further details).
(§2) The reason for the lack of activity after dissolution in DMSO has not been pursued further, but DMSO was eliminated in all subsequent assay systems.

T47D = experiment: NCI60 screen, Sulforhodamine B assay; format: cell-based, human; settings: 10 μM phenoxybenzamine
Procedure: as §1, §2

LXFS DMS 273 = experiment: Oncotest CellTiter-Blue cell viability assay, 72 hours; format: cell-based, human
Procedure: (§3) Further studies with varying drug concentrations on selected human cell lines, in most cases those studied in the NCI60 screen, were conducted by Oncotest GmbH laboratories, Freiburg, Germany; Oncotest is a division of Charles River Laboratories. The dissolution procedure for PBZ and the cell culture […] was 72 hours; anti-tumor activity was determined with the CellTiter-Blue® Cell Viability Assay, Promega, Mannheim, Germany. The 50% Inhibitory (IC50) concentrations were determined. The results are the average of duplicate assays. Paclitaxel was included as a reference compound to confirm the integrity of the assays. See S1 Appendix for further details.
(§4) “Cell lines were routinely passaged once or twice weekly and maintained in culture for up to 20 passages. Cells were grown at 37°C in a humidified atmosphere with 5% CO2 in RPMI 1640 medium (25 mM HEPES, with L-glutamine, #FG1385, Biochrom, Berlin, Germany) supplemented with 10% (v/v) fetal calf serum (Sigma, Taufkirchen, Germany) and 0.1 mg/mL gentamicin (Life Technologies, Karlsruhe, Germany).”

MMXF RPMI 8226 = experiment: as above; format: cell-based, human
Procedure: as §3, §4

PRXF PC-3 = experiment: as above; format: cell-based, human
Procedure: as §3, §4

HDAC1 = target: T1, HDAC1 (Homo sapiens, UniProt Q13547); experiment: Fluorogenic HDAC deacetylase assay (BPS Bioscience); format: biochemical; settings: read-out: % inhibition @ 10 uM
T1 construct: purchased BPS Bioscience 50051

HDAC2 = target: T2, HDAC2 (Homo sapiens, UniProt Q92769); experiment: biochemical; settings: read-out: % inhibition @ 10 uM
T2 construct: purchased BPS Bioscience 50002

HDAC3/NCOR2 = target: T3, HDAC3/NCOR2 (Homo sapiens, UniProt O15379); experiment: Fluorogenic HDAC deacetylase assay (BPS Bioscience); format: biochemical
T3 construct: purchased BPS Bioscience 50003

HDAC4 = target: T4, HDAC4 (Homo sapiens, UniProt P56524); experiment: as above; format: biochemical; settings: read-out: % inhibition @ 10 uM
T4 construct: purchased BPS Bioscience 50004

HDAC7 = target: T5, HDAC7 (Homo sapiens, UniProt Q8WUI4); experiment: as above; format: biochemical
T5 construct: purchased BPS Bioscience 50007

HDAC8 = target: T6, HDAC8 (Homo sapiens, UniProt Q9BY41); experiment: as above; format: biochemical
T6 construct: purchased BPS Bioscience 50008

HDAC11 = target: T7, HDAC11 (Homo sapiens, UniProt Q96DB2); experiment: as above; format: biochemical; settings: read-out: % inhibition @ 10 uM
T7 construct: purchased BPS Bioscience 50011

[1] = system: cultures of 60 human tumors; experiment: NCI60 human tumor culture screen, initial study with DMSO dissolution; format: cell-based; settings: initially dissolved in DMSO
Procedure: as §1

[2] = Aqueous solubility in the NCI60 assay conditions; format: physicochemical
Text: as §2

[3] = LXFS DMS273, 1% FCS, study P495C
[4] = LXFS DMS273, 10% FCS, study P495A
[5] = MMX RPMI8226, 1% FCS, study P495C
[6] = MMX RPMI8226, 10% FCS, study P495A
[7] = MMX RPMI8226, 10% FCS, study P495B
[8] = PRXF PC-3, 10% FCS, study P495A
[9] = PRXF PC-3, 10% FCS, study P495B

T6 sequence (Q9BY41 whole entry): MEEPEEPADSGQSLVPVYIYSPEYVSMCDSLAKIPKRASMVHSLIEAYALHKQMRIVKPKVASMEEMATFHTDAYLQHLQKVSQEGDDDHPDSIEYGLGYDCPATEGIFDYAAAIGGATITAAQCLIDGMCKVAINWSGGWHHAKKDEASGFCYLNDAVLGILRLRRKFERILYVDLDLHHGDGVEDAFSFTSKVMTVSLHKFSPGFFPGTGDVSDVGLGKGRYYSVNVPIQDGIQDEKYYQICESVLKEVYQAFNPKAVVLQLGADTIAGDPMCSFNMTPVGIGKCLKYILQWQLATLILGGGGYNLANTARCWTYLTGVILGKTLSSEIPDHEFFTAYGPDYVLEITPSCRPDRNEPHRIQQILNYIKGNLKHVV
T3 sequence (O15379 whole entry): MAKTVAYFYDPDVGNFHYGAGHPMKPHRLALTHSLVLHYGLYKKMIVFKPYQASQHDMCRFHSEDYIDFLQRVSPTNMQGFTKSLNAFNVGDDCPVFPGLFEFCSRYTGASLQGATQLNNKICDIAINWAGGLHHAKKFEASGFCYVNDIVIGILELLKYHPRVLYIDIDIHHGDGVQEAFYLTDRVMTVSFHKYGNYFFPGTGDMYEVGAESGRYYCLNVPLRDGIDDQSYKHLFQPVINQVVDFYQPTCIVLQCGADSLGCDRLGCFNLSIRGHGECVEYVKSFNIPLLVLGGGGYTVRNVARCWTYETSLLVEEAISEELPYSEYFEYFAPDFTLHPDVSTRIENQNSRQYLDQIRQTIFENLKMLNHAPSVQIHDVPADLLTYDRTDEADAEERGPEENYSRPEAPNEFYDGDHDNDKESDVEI
T3 sequence (Q9Y618 395-489 partner limits assumed): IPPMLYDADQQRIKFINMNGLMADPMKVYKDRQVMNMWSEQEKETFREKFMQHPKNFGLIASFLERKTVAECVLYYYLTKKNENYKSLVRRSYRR
T5 sequence (Q8WUI4 518-952 limits assumed): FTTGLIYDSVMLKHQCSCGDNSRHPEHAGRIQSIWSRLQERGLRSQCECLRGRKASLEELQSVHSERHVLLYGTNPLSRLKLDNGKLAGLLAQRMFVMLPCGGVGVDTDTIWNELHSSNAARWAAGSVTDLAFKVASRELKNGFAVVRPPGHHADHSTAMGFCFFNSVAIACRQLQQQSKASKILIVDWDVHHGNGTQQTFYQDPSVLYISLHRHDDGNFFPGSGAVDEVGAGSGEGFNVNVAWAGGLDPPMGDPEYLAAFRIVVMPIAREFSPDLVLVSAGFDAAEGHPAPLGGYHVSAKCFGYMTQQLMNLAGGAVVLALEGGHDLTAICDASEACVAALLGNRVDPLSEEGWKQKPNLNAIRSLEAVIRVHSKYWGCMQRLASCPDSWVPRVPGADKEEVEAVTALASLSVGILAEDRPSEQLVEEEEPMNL
T1 sequence (Q13547 whole entry): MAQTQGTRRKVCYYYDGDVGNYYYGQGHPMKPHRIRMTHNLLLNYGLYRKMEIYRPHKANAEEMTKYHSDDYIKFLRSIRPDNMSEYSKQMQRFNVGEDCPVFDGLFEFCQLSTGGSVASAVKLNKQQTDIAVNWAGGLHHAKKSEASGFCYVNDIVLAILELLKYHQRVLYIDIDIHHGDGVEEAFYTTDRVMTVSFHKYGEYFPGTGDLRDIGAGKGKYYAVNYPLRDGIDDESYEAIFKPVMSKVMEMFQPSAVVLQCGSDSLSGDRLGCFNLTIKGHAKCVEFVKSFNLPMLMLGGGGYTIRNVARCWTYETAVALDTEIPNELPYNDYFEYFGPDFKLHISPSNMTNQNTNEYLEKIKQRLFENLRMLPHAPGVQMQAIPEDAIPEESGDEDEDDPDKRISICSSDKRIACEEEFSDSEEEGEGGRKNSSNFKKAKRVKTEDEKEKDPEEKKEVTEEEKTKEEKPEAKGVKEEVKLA
T4 sequence (P56524 627-1084 limits assumed): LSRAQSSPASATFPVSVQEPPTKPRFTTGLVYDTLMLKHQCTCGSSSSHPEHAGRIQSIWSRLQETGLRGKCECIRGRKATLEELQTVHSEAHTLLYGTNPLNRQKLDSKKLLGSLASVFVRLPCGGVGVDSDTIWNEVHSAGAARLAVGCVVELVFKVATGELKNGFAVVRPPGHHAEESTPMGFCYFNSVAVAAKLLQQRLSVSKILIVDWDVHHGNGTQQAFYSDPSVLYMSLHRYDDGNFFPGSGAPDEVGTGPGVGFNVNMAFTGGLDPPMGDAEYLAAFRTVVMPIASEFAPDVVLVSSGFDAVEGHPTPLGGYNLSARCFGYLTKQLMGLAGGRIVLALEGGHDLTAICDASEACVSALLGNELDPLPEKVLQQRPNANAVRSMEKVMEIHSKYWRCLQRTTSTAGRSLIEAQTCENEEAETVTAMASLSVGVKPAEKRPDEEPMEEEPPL
T2 sequence (Q92769 whole entry): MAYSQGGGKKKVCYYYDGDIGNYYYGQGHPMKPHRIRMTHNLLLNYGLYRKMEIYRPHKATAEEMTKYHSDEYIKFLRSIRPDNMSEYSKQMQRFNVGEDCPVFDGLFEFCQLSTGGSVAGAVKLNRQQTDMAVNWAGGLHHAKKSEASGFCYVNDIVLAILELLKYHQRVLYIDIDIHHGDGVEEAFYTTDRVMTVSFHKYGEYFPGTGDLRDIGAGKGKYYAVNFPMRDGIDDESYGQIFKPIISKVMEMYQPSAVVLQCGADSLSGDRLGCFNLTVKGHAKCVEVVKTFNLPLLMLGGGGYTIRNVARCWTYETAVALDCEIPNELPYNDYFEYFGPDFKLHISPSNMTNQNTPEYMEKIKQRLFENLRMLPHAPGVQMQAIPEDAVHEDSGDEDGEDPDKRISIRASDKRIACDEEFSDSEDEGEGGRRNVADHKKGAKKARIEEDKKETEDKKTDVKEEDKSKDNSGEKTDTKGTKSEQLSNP
T7 sequence (Q96DB2 whole entry): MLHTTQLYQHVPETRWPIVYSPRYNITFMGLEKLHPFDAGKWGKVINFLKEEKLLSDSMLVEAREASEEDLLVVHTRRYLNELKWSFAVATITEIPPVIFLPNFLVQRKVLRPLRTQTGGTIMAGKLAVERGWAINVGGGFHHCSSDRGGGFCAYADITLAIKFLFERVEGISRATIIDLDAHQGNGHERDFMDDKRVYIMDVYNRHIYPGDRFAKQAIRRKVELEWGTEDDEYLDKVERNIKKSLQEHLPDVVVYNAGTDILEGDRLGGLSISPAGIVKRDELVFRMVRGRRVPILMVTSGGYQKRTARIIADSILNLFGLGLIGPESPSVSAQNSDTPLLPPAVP

What does the source list for `CC(COc1ccccc1)N(CCCl)Cc1ccccc1` (centres unmarked) [PBZ, phenoxybenzamine]?
Percent cell growth in NCI60 screen with 5% FCS (48 hr incubation) (RPMI 8226): 60%; Percent cell growth in NCI60 screen with 5% FCS (48 hr incubation) (T47D): 60%; IC50 (LXFS DMS 273; Homo sapiens, LXFS DMS 273 Small-cell lung, 1% FCS): 99.8 µM; Test/Control (%) at Drug Concentration [uM] 1,0E+00 (LXFS DMS 273; [3]): 104%; Test/Control (%) at Drug Concentration [uM] 1,0E+01 (LXFS DMS 273; [3]): 91%; Test/Control (%) at Drug Concentration [uM] 1,0E+02 (LXFS DMS 273; [3]): 49%; Test/Control (%) at Drug Concentration [uM] 3,2E+00 (LXFS DMS 273; [3]): 101%; Test/Control (%) at Drug Concentration [uM] 3,2E+01 (LXFS DMS 273; [3]): 100%; Test/Control (%) at Drug Concentration [uM] 1,0E+00 (LXFS DMS 273; [4]): 76%; Test/Control (%) at Drug Concentration [uM] 1,0E+01 (LXFS DMS 273; [4]): 82%; Test/Control (%) at Drug Concentration [uM] 1,0E+02 (LXFS DMS 273; [4]): 105%; Test/Control (%) at Drug Concentration [uM] 1,0E-01 (LXFS DMS 273; [4]): 81%; Test/Control (%) at Drug Concentration [uM] 1,0E-02 (LXFS DMS 273; [4]): 75%; Test/Control (%) at Drug Concentration [uM] 3,2E+00 (LXFS DMS 273; [4]): 87%; Test/Control (%) at Drug Concentration [uM] 3,2E+01 (LXFS DMS 273; [4]): 100%; Test/Control (%) at Drug Concentration [uM] 3,2E-01 (LXFS DMS 273; [4]): 80%; Test/Control (%) at Drug Concentration [uM] 3,2E-02 (LXFS DMS 273; [4]): 74%; Test/Control (%) at Drug Concentration [uM] 3,2E-03 (LXFS DMS 273; [4]): 83%; Percent cell growth in Oncotest screen with 10% FCS (72 hr incubation) (MMXF RPMI 8226; 10 μM phenoxybenzamine, RPMI 8226): 98%; IC50 (MMXF RPMI 8226; Homo sapiens, MMXF RPMI 8226 Myeloma, 1% FCS): 44.4 µM; Test/Control (%) at Drug Concentration [uM] 1,0E+00 (MMXF RPMI 8226; [5]): 102%; Test/Control (%) at Drug Concentration [uM] 1,0E+01 (MMXF RPMI 8226; [5]): 95%; Test/Control (%) at Drug Concentration [uM] 1,0E+02 (MMXF RPMI 8226; [5]): 5%; Test/Control (%) at Drug Concentration [uM] 3,2E+00 (MMXF RPMI 8226; [5]): 101%; Test/Control (%) at Drug Concentration [uM] 3,2E+01 (MMXF RPMI 8226; [5]): 77%; Test/Control (%) at Drug Concentration [uM] 1,0E+00 (MMXF RPMI 8226; [6]): 89%; Test/Control (%) at Drug Concentration [uM] 1,0E+01 (MMXF RPMI 8226; [6]): 98%; Test/Control (%) at Drug Concentration [uM] 1,0E+02 (MMXF RPMI 8226; [6]): 10%; Test/Control (%) at Drug Concentration [uM] 1,0E-01 (MMXF RPMI 8226; [6]): 83%; Test/Control (%) at Drug Concentration [uM] 1,0E-02 (MMXF RPMI 8226; [6]): 80%; Test/Control (%) at Drug Concentration [uM] 3,2E+00 (MMXF RPMI 8226; [6]): 87%; Test/Control (%) at Drug Concentration [uM] 3,2E+01 (MMXF RPMI 8226; [6]): 99%; Test/Control (%) at Drug Concentration [uM] 3,2E-01 (MMXF RPMI 8226; [6]): 84%; Test/Control (%) at Drug Concentration [uM] 3,2E-02 (MMXF RPMI 8226; [6]): 76%; Test/Control (%) at Drug Concentration [uM] 3,2E-03 (MMXF RPMI 8226; [6]): 86%; Test/Control (%) at Drug Concentration [uM] 1,0E+00 (MMXF RPMI 8226; [7]): 88%; Test/Control (%) at Drug Concentration [uM] 1,0E+01 (MMXF RPMI 8226; [7]): 94%; Test/Control (%) at Drug Concentration [uM] 1,0E+02 (MMXF RPMI 8226; [7]): 16%; Test/Control (%) at Drug Concentration [uM] 1,0E-01 (MMXF RPMI 8226; [7]): 100%; Test/Control (%) at Drug Concentration [uM] 1,0E-02 (MMXF RPMI 8226; [7]): 100%; Test/Control (%) at Drug Concentration [uM] 1,0E-03 (MMXF RPMI 8226; [7]): 100%; Test/Control (%) at Drug Concentration [uM] 3,2E+00 (MMXF RPMI 8226; [7]): 92%; Test/Control (%) at Drug Concentration [uM] 3,2E+01 (MMXF RPMI 8226; [7]): 95%; Percent cell growth in Oncotest screen with 10% FCS (72 hr incubation) (PRXF PC-3; 10 μM phenoxybenzamine, PC-3): 86%; IC50 (PRXF PC-3; Homo sapiens, PRXF PC-3 Prostate, 1% FCS): 29.8 µM; Test/Control (%) at Drug Concentration [uM] 1,0E+00 (PRXF PC-3; PRXF PC-3, 1% FCS, study P495C): 102%; Test/Control (%) at Drug Concentration [uM] 1,0E+01 (PRXF PC-3; PRXF PC-3, 1% FCS, study P495C): 100%; Test/Control (%) at Drug Concentration [uM] 1,0E+02 (PRXF PC-3; PRXF PC-3, 1% FCS, study P495C): 22%; Test/Control (%) at Drug Concentration [uM] 3,2E+00 (PRXF PC-3; PRXF PC-3, 1% FCS, study P495C): 105%; Test/Control (%) at Drug Concentration [uM] 3,2E+01 (PRXF PC-3; PRXF PC-3, 1% FCS, study P495C): 58%; Test/Control (%) at Drug Concentration [uM] 1,0E+00 (PRXF PC-3; [8]): 86%; Test/Control (%) at Drug Concentration [uM] 1,0E+01 (PRXF PC-3; [8]): 86%; Test/Control (%) at Drug Concentration [uM] 1,0E+02 (PRXF PC-3; [8]): 52%; Test/Control (%) at Drug Concentration [uM] 1,0E-01 (PRXF PC-3; [8]): 87%; Test/Control (%) at Drug Concentration [uM] 1,0E-02 (PRXF PC-3; [8]): 83%; Test/Control (%) at Drug Concentration [uM] 3,2E+00 (PRXF PC-3; [8]): 89%; Test/Control (%) at Drug Concentration [uM] 3,2E+01 (PRXF PC-3; [8]): 82%; Test/Control (%) at Drug Concentration [uM] 3,2E-01 (PRXF PC-3; [8]): 91%; Test/Control (%) at Drug Concentration [uM] 3,2E-02 (PRXF PC-3; [8]): 87%; Test/Control (%) at Drug Concentration [uM] 3,2E-03 (PRXF PC-3; [8]): 91%; Test/Control (%) at Drug Concentration [uM] 1,0E+00 (PRXF PC-3; [9]): 89%; Test/Control (%) at Drug Concentration [uM] 1,0E+01 (PRXF PC-3; [9]): 77%; Test/Control (%) at Drug Concentration [uM] 1,0E+02 (PRXF PC-3; [9]): 49%; Test/Control (%) at Drug Concentration [uM] 1,0E-01 (PRXF PC-3; [9]): 84%; Test/Control (%) at Drug Concentration [uM] 1,0E-02 (PRXF PC-3; [9]): 88%; Test/Control (%) at Drug Concentration [uM] 1,0E-03 (PRXF PC-3; [9]): 81%; Test/Control (%) at Drug Concentration [uM] 3,2E+00 (PRXF PC-3; [9]): 92%; Test/Control (%) at Drug Concentration [uM] 3,2E+01 (PRXF PC-3; [9]): 74%; inhibition at 10 µM (HDAC1): 16%; inhibition at 10 µM (HDAC2): 0%; % inhibition @ 10 uM (HDAC3/NCOR2; HDAC3/NCOR2, 10 µM): ~30%; inhibition at 10 µM (HDAC3/NCOR2; read-out: % inhibition @ 10 uM, HDAC3/NCOR2): 31%; inhibition at 10 µM (HDAC4): 25%; % inhibition @ 10 uM (HDAC7; HDAC7, 10 µM): ~30%; inhibition at 10 µM (HDAC7; read-out: % inhibition @ 10 uM, HDAC7): 34%; % inhibition @ 10 uM (HDAC8; HDAC8, 10 µM): ~30%; inhibition at 10 µM (HDAC8; read-out: % inhibition @ 10 uM, HDAC8): 34%; inhibition at 10 µM (HDAC11): 0%; biological effect in NCI60 screen [1]: essentially no biological effect; aqueous solubility [2]: adequate aqueous solubility

Reference: PMC5999115, “Anti-tumor activity of phenoxybenzamine and its inhibition of histone deacetylases” (PLoS ONE, 2018)
